Activity calls are given as the source filed them.
How the values were obtained:
cells [1] = format: functional, cell-based; conditions: HEK-CNG
Galanin receptor type 3 = Galanin receptor type 3 (Homo sapiens, UniProt O60755); experiment: Fluorescence-based cell-based primary high throughput dose response assay to identify antagonists of the Galanin Receptor 3 (GalR3).; format: functional
[2] = loss of viability in HepG2 cells – cell-based, CellTiter-Glo, cherry-picked, cytotoxicity control for Shn3 inhibitor project, dose response (AID 624134); format: functional
INS1 = experiment: INS-1E survival protection against cytokine death – cell-based, luminescence, retest, dose response (AID 449756); format: functional; conditions: Rattus norvegicus;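 further: cell death triggered by IL-1 beta plus TNF-alpha plus IFN-gamma mixture; protective hits raise ATP signal compared with cytokine alone wells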
[3] = biological target: COUP transcription factor 2 (Homo sapiens, UniProt P24468); experiment: Luminescence-based cell-based high throughput dose response assay to identify inhibitors of COUP-TFII (NR2F2).; format: functional;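 further: HEK293 cells transiently cotransfected with COUP-TFII expression vector and reporter; luciferase reporter luminescence driven by COUP-TFII from the pX2-168 reporter plasmid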
[4] = non-specific 3'UTR reporter inhibition in Clone20-Shn3RL – cell-based, Renilla luciferase, cherry-picked, counter-screen for Shn3 inhibitor project, dose response (AID 624133); format: functional
[5] = reduction of Shn3 3'UTR-driven luciferase in osteoblasts – cell-based, Clone20 osteoblasts, firefly luciferase, cherry-picked, dose response (AID 624132); format: functional;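 further: firefly luciferase luminescence from reporter carrying the Shn3 3'UTR in osteoblasts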
HEK293 [6] = experiment: NOD2 signaling inhibitors in MDP-stimulated cells, cell-based, uHTS, luminescence (AID 2001); format: functional; conditions: Homo sapiens
HEK293 [7] = experiment: inhibition of NOD1-driven NF-kB reporter – cell-based, luminescence, uHTS, primary screen (AID 1578); format: functional; conditions: Homo sapiens
HEK293 [8] = experiment: cells; format: functional, cell-based; conditions: Homo sapiens
HEK293 [9] = experiment: cells; format: functional, cell-based; conditions: Homo sapiens; remark: listed apart in the source
[10] = viability loss in HepG2 liver cells – cell-based, ATP luminescence, cherry-pick, set 6, cytotoxicity control, dose response (AID 1053125); format: functional
cells [11] = conditions: HEK293
[12] = cytotoxicity in MITF-independent A375 cells – cell-based, CellTiter-Glo luminescence, dry powder, set 4, counter-screen for MITF inhibitor project, dose response (AID 624364); format: functional; conditions: A-375;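 further: A375 melanoma cells are MITF independent so this is a counter screen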
[13] = viability of PTEN-deleted HCT116 cells – cell-based, HCT116 PTEN knockout, dose response (AID 1047); format: functional;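 further: HCT116 colon tumor cells with PTEN knocked out; cells exposed to compound for 60 hours before readout; potency for loss of cell viability measured by luminescence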
[14] = viability loss in MITF-independent A375 cells – cell-based, CellTiter-Glo luminescence, dry powder, set 2, counter-screen for MITF inhibitor project, dose response (AID 624489); format: functional; conditions: A-375;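 further: actives are compounds lowering A375 viability meaning general cytotoxicity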
[15] = biological target: T1, Microphthalmia-associated transcription factor (Homo sapiens, UniProt O75030); experiment: reducers of TRPM1 reporter luminescence, concentration series – cell-based, SK-MEL-5, cherry-picked, set 3, MITF inhibitor project, dose response (AID 493073); format: functional;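 further: SK-MEL-5 melanoma cells with luciferase driven by the MITF target TRPM1 promoter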
T1 sequence (O75030 whole entry): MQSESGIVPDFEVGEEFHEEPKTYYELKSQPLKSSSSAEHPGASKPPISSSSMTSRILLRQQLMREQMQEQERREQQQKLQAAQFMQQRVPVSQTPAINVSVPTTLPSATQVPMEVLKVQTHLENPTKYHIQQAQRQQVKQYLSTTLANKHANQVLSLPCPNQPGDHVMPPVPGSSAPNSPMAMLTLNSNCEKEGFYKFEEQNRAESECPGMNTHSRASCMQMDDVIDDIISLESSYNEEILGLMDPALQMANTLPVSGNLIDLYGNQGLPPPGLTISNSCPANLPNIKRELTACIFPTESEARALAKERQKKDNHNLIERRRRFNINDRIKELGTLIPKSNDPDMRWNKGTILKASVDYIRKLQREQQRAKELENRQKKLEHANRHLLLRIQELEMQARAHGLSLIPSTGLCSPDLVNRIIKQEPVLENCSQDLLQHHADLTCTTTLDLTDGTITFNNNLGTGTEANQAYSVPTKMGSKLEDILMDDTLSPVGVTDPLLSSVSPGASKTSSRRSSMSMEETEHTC

[16] = viability of HCT116 lacking mutant beta-catenin – cell-based, human colon tumor, dose response (AID 1045); format: functional;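 further: HCT116 colon tumor cells with beta catenin knocked out; cells exposed to compound for 60 hours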
[17] = viability loss of HPDE-C7K cells – cell-based, fluorescence, HTS, primary screen (AID 431); format: functional; conditions: Homo sapiens
[18] = HPDE-C7 pancreatic duct cell viability loss – fluorescence, HTS (AID 430); format: functional, cell-based; conditions: Homo sapiens
[19] = potency of ADAM10 substrate cleavage blockers – biochemical, QFRET, dose response (AID 743254);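 further: ADAM10 enzyme with the DM2 quenched FRET peptide as substrate; EDANS fluorescence gain as the protease cuts the substrate; inhibitor potency against ADAM10 proteolytic activity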
[20] = biological target: T2, Disintegrin and metalloproteinase domain-containing protein 17 (Homo sapiens, UniProt P78536); experiment: inhibition of ADAM17 substrate cleavage – biochemical, quenched FRET substrate, counter-screen for ADAM10 exosite inhibitor project, dose response (AID 743253)
Caspase-6 = Caspase-6 (Homo sapiens, UniProt P55212); experiment: inhibition of CASP6 peptide cleavage – biochemical, VEID-R110 fluorescence, cherry-pick, dose response (AID 720632)
cells [21] = experiment: cells
Major prion protein = Major prion protein (Homo sapiens, UniProt P04156); format: functional, cell-based
[22] = biological target: T2, Disintegrin and metalloproteinase domain-containing protein 17; experiment: exosite inhibitors of ADAM17, dose response, biochemical (AID 743260)
[23] = inhibition of ADAM10 peptide cleavage – biochemical, FRET peptide substrate, recombinant human ADAM10, selectivity assay for ADAM17 exosite inhibitor project, dose response (AID 743259);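 further: ADAM10 enzyme cleaving a FRET peptide substrate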
[24] = biological target: T3, Trace amine-associated receptor 1 (Homo sapiens, UniProt Q96RJ0); experiment: Counterscreen for agonists of the human trace amine associated receptor 1 (hTAAR1): Fluorescence-based cell-based high throughput dose response assay to identify hTAAR1 agonist that also desensitize TAAR1 receptor response.; format: functional
T3 sequence (Q96RJ0 whole entry): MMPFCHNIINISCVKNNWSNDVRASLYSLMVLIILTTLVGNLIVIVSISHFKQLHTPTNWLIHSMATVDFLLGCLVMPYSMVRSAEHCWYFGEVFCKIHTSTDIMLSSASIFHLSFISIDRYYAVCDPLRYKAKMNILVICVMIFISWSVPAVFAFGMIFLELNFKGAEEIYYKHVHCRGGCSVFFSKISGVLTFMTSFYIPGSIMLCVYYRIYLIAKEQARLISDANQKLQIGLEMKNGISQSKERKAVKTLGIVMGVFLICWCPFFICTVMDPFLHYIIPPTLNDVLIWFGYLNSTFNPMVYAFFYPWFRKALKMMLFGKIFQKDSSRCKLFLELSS

cells [25] = format: functional, cell-based
cells [26] = format: functional, cell-based; remark: listed apart in the source
[27] = biological target: T3, Trace amine-associated receptor 1; experiment: Fluorescence-based cell-based high throughput dose response assay to identify agonists of the human trace amine associated receptor 1 (TAAR1).; format: functional
cells [28] = format: functional, cell-based; remark: listed apart in the source
[29] = biological target: T4, Nuclear receptor subfamily 0 group B member 1 (Homo sapiens, UniProt P51843); format: functional, cell-based;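 further: HEK293T cells transfected with SF-1 and DAX-1 plus StAR promoter luciferase reporter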
T4 sequence (P51843 whole entry): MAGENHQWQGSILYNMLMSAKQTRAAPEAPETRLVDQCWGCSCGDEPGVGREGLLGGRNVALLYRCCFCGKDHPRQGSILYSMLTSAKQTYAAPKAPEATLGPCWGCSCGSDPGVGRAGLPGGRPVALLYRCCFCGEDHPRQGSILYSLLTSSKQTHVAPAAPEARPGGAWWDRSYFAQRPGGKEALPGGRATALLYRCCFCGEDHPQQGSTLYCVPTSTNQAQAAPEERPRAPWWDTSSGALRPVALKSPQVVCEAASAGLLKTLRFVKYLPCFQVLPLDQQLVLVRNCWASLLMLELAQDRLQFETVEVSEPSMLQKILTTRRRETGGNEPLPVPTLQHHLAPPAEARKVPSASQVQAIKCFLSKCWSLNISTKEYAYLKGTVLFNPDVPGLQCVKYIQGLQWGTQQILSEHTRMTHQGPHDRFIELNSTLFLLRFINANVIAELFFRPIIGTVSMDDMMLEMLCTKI

[30] = Luminescence Cell-Based Dose Response HTS to Identify Inhibitors of 5'UTR Stem-Loop Driven Prion Protein mRNA Translation in H4 Neuroglioblastoma Cells. [Related pubchem assays: 1827 (Project Summary), 1813 (Primary HTS)]; format: functional
[31] = alpha-synuclein stem-loop luciferase translation blockers – H4 neuroglioma cells, luminescence, confirmation (AID 1988); format: functional, cell-based
[32] = luciferase reporter signal suppression in cells – H4 neuroglioma cells, luminescence, dose response (AID 1990); format: functional, cell-based
[33] = reduced cellular PGC1a acetyl-lysine signal – cell-based, cherry-picked samples, dose response (AID 720514); format: functional;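 further: potency may reflect raised or lowered acetylation signal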
[34] = biological target: Induced myeloid leukemia cell differentiation protein Mcl-1 (Homo sapiens, UniProt Q07820); format: functional
[35] = biological target: T5, Sentrin-specific protease 8 (Homo sapiens, UniProt Q96LD8); format: functional
T5 sequence (Q96LD8 whole entry): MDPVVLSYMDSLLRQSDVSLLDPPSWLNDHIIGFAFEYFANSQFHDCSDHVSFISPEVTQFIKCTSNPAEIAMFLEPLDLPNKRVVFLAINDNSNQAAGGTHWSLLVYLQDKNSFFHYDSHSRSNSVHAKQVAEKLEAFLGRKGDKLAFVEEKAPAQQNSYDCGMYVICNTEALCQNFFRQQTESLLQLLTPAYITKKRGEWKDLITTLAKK

[36] = biological target: Tyrosyl-DNA phosphodiesterase 2 (Homo sapiens, UniProt O95551); experiment: potency against TDP2 phosphodiesterase activity – biochemical, epi absorbance, IC50, dose response (AID 743297)
[37] = biological target: T5, Sentrin-specific protease 8; format: functional; remark: listed apart in the source
[38] = viability loss in HEK293T cells – cell-based, cherry-picks, cytotoxicity control for HIV Vif inhibitor project, dose response (AID 652208); format: functional
HEK293 [39] = experiment: EBV LMP1 TES2 canonical NF-kB signalling blockers – cell-based, HEK293, luciferase, cherry-pick, dose response (AID 588343); format: functional; conditions: Homo sapiens

Fc1ccc(N=C(S)NNc2ncc(C(F)(F)F)cc2Cl)c(F)c1
EC50 (cells [1]): > 29.9 µM (inactive)

CCOc1nc(C#N)nc(N2CCCCC2)n1
EC50 (cells [1]): > 29.9 µM (inactive) | IC50 (Galanin receptor type 3): 1.09 µM (active)

Cc1ccc(C(=O)NC2CCCc3c2cnn3-c2ccc(F)cc2F)cn1 (centres undefined)
AC50 [2]: 2.34 µM (active) | AC50 (INS1): 4.93 µM (active) | IC50 [3]: 3.66 µM (active) | AC50 [4]: 6.81 µM (active) | AC50 [5]: 0.921 µM (active)

CCN(CC)S(=O)(=O)c1cccc(NC(=O)CNc2cccc(S(=O)(=O)N3CCCC3)c2)c1
AC50 [2]: 1.11 µM (active) | AC50 (INS1): 3.73 µM (active) | IC50 (HEK293 [6]): 3.47 µM (active) | IC50 [3]: 3.33 µM (active) | EC50 (HEK293 [7]): 0.56 µM (active) | IC50 (HEK293 [8]): 2.55 µM (active) | IC50 (HEK293 [9]): 14.6 µM (active) | AC50 [4]: 33.8 µM (active) | AC50 [5]: 0.317 µM (active)

S=C(NCC1CCCO1)N1CCN(Cc2ccccc2Cl)CC1 (centres undefined)
AC50 [10]: 38.4 µM (active) | AC50 (cells [11]): > 24 µM (inactive)

CCN1c2ccccc2NC2N=C(OC)C(c3ccccc3)C21 (centres undefined)
AC50 [12]: 50.4 µM (active) | EC50 [13]: 8.12 µM (active) | AC50 [14]: 29.7 µM (active) | AC50 (INS1): 1.26 µM (active) | AC50 [15]: 7.51 µM (active) | EC50 [16]: 7.49 µM (active)

C=C(C)COc1ccc(-c2n[nH]cc2-c2ccccc2OC)c(O)c1
EC50 [17]: 11.3 µM (active) | EC50 [18]: 13.7 µM (active) | IC50 [19]: 10.6 µM (inactive) | IC50 [20]: > 69.5 µM (inactive)

O=C(O)CCCC(=O)OCCCc1cc2ccccc2c(=O)o1
AC50 (Caspase-6): 1.51 µM (active)

COc1ccc(-c2nc3ccc(Br)cn3c2Cc2cccc(F)c2)cc1OC
IC50 (cells [21]): > 138 µM (inactive) | IC50 (Major prion protein): 6.96 µM (active)

c1ccc(-n2c(SCc3cccc4ccccc34)nnc2-c2ccccn2)cc1
IC50 [22]: > 69.4 µM (inactive) | IC50 [23]: 24.1 µM (inactive)

Cc1nn(CC(=O)N/N=C/c2cccs2)c(C)c1[N+](=O)[O-]
IC50 [24]: > 29.9 µM (inactive) | IC50 (cells [25]): > 29.9 µM (inactive) | EC50 (cells [26]): > 29.9 µM (inactive) | EC50 [27]: 2.82 µM (active)

CN1CCN(c2ccc(NC(=O)c3ccc4ccccc4c3)cc2)CC1
IC50 (cells [28]): > 67.6 µM (inactive) | IC50 [29]: > 67.6 µM (inactive) | EC50 [30]: 8.96 µM (inconclusive) | EC50 [31]: 9.94 µM (inconclusive) | EC50 [32]: 7.8 µM (inconclusive)

Cn1cccc1CNCCc1ccc(F)cc1
IC50 [24]: 20 µM (inactive) | IC50 (cells [25]): > 29.9 µM (inactive) | EC50 (cells [26]): > 29.9 µM (inactive) | EC50 [27]: 6.31 µM (active)

CCN1C(C#N)=C(C#N)N=C(C)CC1(C)C
AC50 [33]: 30.5 µM (active)

CN(C)c1ccc(NC(=O)c2cn(-c3ccccc3)nc2-c2cccs2)cc1
IC50 [34]: 2.48 µM (not active) | IC50 [19]: > 69.5 µM (inactive) | IC50 [20]: > 69.5 µM (inactive)

Cc1ccc(C(=O)Nc2c(-c3ccc(Cl)cc3)n[nH]c2O)cc1
IC50 [35]: 63.5 µM (inactive) | IC50 [36]: > 128 µM (inactive) | IC50 [37]: 39.9 µM (active)

O=C1C(NCCCN2CCOCC2)=C(Nc2ccccc2)C(=O)c2ccccc21
AC50 [12]: > 70 µM (inactive) | AC50 [14]: > 70 µM (inactive)

Cc1cccc(NC2=C(NCCO)C(=O)c3ccccc3C2=O)c1
AC50 (Caspase-6): 9.36 µM (active)

COc1ccc2cc(-c3cc(C(=O)OCC(=O)NC4CCS(=O)(=O)C4)c4ccccc4n3)ccc2c1 (centres undefined)
AC50 [38]: 29.3 µM (active) | EC50 [30]: 7.41 µM (active) | AC50 (HEK293 [39]): 1.09 µM (active) | EC50 [31]: 6.8 µM (active) | EC50 [32]: 10.1 µM (inconclusive)

COc1ccc(NC(=O)NNC(=O)COc2ccc3cc(Br)ccc3c2)cc1OC
IC50 (cells [21]): > 138 µM (inactive) | IC50 (Major prion protein): 5.33 µM (active)

From ChEMBL document CHEMBL1201862, “PubChem BioAssay data set” (2004)
